Data taken from patent publication US10441564B2, “Fructose analogs and their combinations as anti-cancer agents” (priority 2016, dated 2019).
“Also recorded” adds a separate entry of the source.

Key:
OCI-AML3 = assay: proliferation of AML cells OCI-AML3; type: cell-based
Description: (§1) In cell culture conditions with 6 mM fructose or 6 mM fructose+0.75 mM glucose, 2,5-AM could inhibit the proliferation of four AML cells, including U937, OCI-AML3, HL-60 and K562 cells.

BxPC-3 = assay: fructose-induced proliferation of pancreatic cancer cells BxPC-3; type: cell-based; settings: 6 mM fructose culture
K562 = assay: proliferation of AML cells K562; type: cell-based
HCT-116 = assay: malignant proliferation of colorectal cancer cells HCT-116; type: cell-based; settings: 6 mM fructose culture
HL-60 = assay: proliferation of AML cells HL-60; type: cell-based
Description: as §1

AML cells = assay: fructose utilization in AML cells in vitro; type: cell-based; settings: in vitro cell experiments
From the text: Enhanced fructose metabolism mediated by GLUTS exacerbates the malignant phenotype of AML cells, including increased cell proliferation, enhanced colony formation, and increased mobility and infiltration of AML cells (FIG. 3A-3D). […] Additionally 2,5-AM can kill AML cells in concert with conventional chemotherapeutic agents (FIG. 7A-7G).

cancer cells = assay: fructose and glucose utilization by cancer cells; type: cell-based
From the text: The present inventors have discovered, for the first time, the important role of GLUTS-mediated fructose metabolism in the malignant progression of cancer, and the close relationship with the prognosis of the cancer patients, through extensive and in-depth research and clinical data analysis. […] Furthermore, 2,5-AM may reverse the malignant phenotypes of AML cells by synergizing with conventional chemotherapeutic cytarabine or glucose analogue 2-deoxy-glucose (2-DG). […] Moreover, 2,5-AM and cytarabine in AML mice also have a significant synergistic effect. Through the above work, the present inventors have determined the administration of 2,5-AM to AML, pancreatic cancer, and colorectal cancer, including the dosage, the route of administration and the duration of administration; and the combined use of 2,5-AM and conventional chemotherapeutic agents or 2-DG methods for cancer treatment.

[1] = test system: U937-SLC2A5 cells (overexpressing the fructose transporter SLC2A5); assay: cell migration of U937-SLC2A5 cells; type: cell-based; settings: 6 mM fructose or 6 mM fructose+0.75 mM glucose
PANC-1 = assay: fructose-induced proliferation of pancreatic cancer cells PANC-1; type: cell-based; settings: 6 mM fructose culture
[2] = test system: AML mice (murine leukemic cells with AML1-ETO and mutated C-KIT); assay: AML model mice; type: in vivo, BALB/c female mice
Description: AML mice were generated using a previously reported procedure (Wang et al., 2011) with minor modifications. About 1×10^5 GFP-positive murine leukemic cells (splenic cells) with AML1-ETO and mutated C-KIT were injected into the tail vein of each sublethally irradiated (3.5 Gy), 8 week old BALB/c female mice. On day 5 after inoculation of AML cells, 2,5-AM was injected intraperitoneally at a dose of 150 mg/kg/day for continuous administration to mice. Control group AML mice were given saline injection according to the same dose and method.
chemotherapeutic drug cytarabine on the treatment of AML model mice (Ara-C) was administered intraperitoneally at a dose of 25 mg/kg/day on the third day in the AML model mice (see example 3) for 3 days after AML cell inoculation. At the same time, mice were intraperitoneally injected with 2,5 AM at a dose of 150 mg/kg/day on day 5 after AML cell inoculation, until mice were dead. (2) Ara-C alone group: In the AML model mice of Example 3, Ara-C was injected intraperitoneally at a dose of 25 mg/kg/day on the third day after AML cell inoculation for 3 days.

[3] = test system: U937-SLC2A5 cells (overexpressing the fructose transporter SLC2A5); assay: colony formation of U937-SLC2A5 cells; type: cell-based; settings: 6 mM fructose or 6 mM fructose+0.75 mM glucose
HCT-15 = assay: malignant proliferation of colorectal cancer cells HCT-15; type: cell-based; settings: 6 mM fructose culture
U937 = assay: proliferation of AML cells U937; type: cell-based
Description: as §1

CFPAC-1 = assay: fructose-induced proliferation of pancreatic cancer cells CFPAC-1; type: cell-based; settings: 6 mM fructose culture
[4] = test system: U937-SLC2A5 cells (overexpressing the fructose transporter SLC2A5); assay: malignant proliferation of AML cells U937-SLC2A5; type: cell-based; settings: 6 mM fructose or 6 mM fructose+0.75 mM glucose
[5] = 6 mM fructose or 6 mM fructose+0.75 mM glucose
[6] = 150 mg/kg/day intraperitoneally from day 5, compared with saline control group

With `OC[C@H]1O[C@H](CO)[C@@H](O)[C@@H]1O` [2,5-AM, 2,5-anhydro-D-mannitol] the “malignant proliferation of OCI-AML3” value (OCI-AML3; [5]) was “significantly inhibited; also recorded: could inhibit”, the “cell proliferation of OCI-AML3” value (OCI-AML3; 6 mM glucose) was “almost unaffected” and the “proliferation of BxPC-3” value (BxPC-3) was “significantly inhibited”. For the same compound, the “malignant proliferation of K562” value (K562; [5]) was “significantly inhibited; also recorded: could inhibit”, the “cell proliferation of K562” value (K562; 6 mM glucose) was “almost unaffected” and the “malignant proliferation of HCT-116” value (HCT-116) was “significantly inhibited”. For the same compound, the “malignant proliferation of HL-60” value (HL-60; [5]) was “significantly inhibited; also recorded: could inhibit”, the “cell proliferation of HL-60” value (HL-60; 6 mM glucose) was “almost unaffected” and the “fructose utilization in AML cells” value (AML cells) was “blocked”. For the same compound, the “fructose utilization by cancer cells” value (cancer cells) was “competitively inhibits”, the glucose utilization (cancer cells) was “little effect” and the cell migration [1] was “significantly inhibited”. For the same compound, the “proliferation of PANC-1” value (PANC-1) was “significantly inhibited”, the “bone marrow leukemia cells” value [2, 6] was “significantly inhibited” and the hemoglobin [2, 6] was “significantly increased”. The “overall survival of mice” value [2, 6] was “significantly prolonged”, the “peripheral blood leukemia cells” value [2, 6] was “significantly inhibited” and the “peripheral blood red blood cell count” value [2, 6] was “significantly increased”. The “peripheral white blood cells” value [2, 6] was “significantly inhibited”, the platelet count [2, 6] was “significantly increased” and the spleen enlargement [2, 6] was “significantly relieved”. For the same compound, the “fructose utilization by AML cells in vivo” value ([2]; mouse in vivo experiments) was “significantly inhibited”, the colony formation [3] was “significantly inhibited” and the “malignant proliferation of HCT-15” value (HCT-15) was “significantly inhibited”. For the same compound, the “malignant proliferation of U937” value (U937; [5]) was “significantly inhibited; also recorded: could inhibit”, the “cell proliferation of U937” value (U937; 6 mM glucose) was “almost unaffected” and the “proliferation of CFPAC-1” value (CFPAC-1) was “significantly inhibited”. For the same compound, the “malignant proliferation of AML cells U937-SLC2A5” value [4] was “significantly inhibited”.
